Test results as given in publication PMC9410420, “Novel Labdane Diterpenes-Based Synthetic Derivatives: Identification of a Bifunctional Vasodilator That Inhibits CaV1.2 and Stimulates KCa1.1 Channels” (Marine Drugs, 2022).

Assays:
rat aorta rings [1] = assay: KCl-induced contraction of rat aorta rings (electromechanical coupling)
Protocol: (§1) The abdominal aorta was gently cleaned of adipose and connective tissues and cut into 3-mm wide rings. These were mounted in organ baths between two parallel, L-shaped, stainless-steel hooks, with one fixed in place and the other connected to an isometric transducer. Rings were allowed to equilibrate for 60 min in modified Krebs-Henseleit solution (composition in mM: 118 NaCl, 4.75 KCl, 1.19 KH2PO4, 1.19 MgSO4, 25 NaHCO3, 11.5 glucose, 2.5 CaCl2, gassed with a 95% O2–5% CO2 gas mixture to create a pH of 7.4) under a passive tension of 1 g. During this equilibration period, the solution was changed every 15 min. Isometric tension was recorded using a digital PowerLab data acquisition system (PowerLab 8/30; ADInstruments). Ring viability was assessed by recording the response to 0.3 µM phenylephrine and 60 mM KCl. Where needed, the endothelium was removed by gently rubbing the lumen of the ring with a forceps tip. This procedure was validated by adding 10 µM acetylcholine at the plateau of phenylephrine-induced contraction; a relaxation greater than 70% or less than 10% denoted the presence or absence of functional endothelium, respectively.
(§2) Aorta rings were pre-contracted pharmaco-mechanically using 0.3 µM phenylephrine and electromechanically using 25–30 mM or 60 mM KCl. Once the contraction reached a plateau, the compound was added cumulatively into the organ bath. […] The response was calculated as the percentage of phenylephrine- or KCl-induced contraction (taken as 100%).

CaV1.2 channel [2] = target: T1, CaV1.2 channel (Rattus norvegicus, UniProt P22002); assay: Whole-cell patch-clamp, Ba2+ current through CaV1.2 channels (IBa1.2) in rat tail artery myocytes; format: cell-based; conditions: for Emax: read-out: Emax (percent maximal inhibition), IBa1.2; for IC50: read-out: IC50, IBa1.2 inhibition
T1 construct: smooth muscle cells were freshly isolated; endogenous in cells; host or cells: freshly isolated rat tail main artery smooth muscle cells
Protocol: The tail main artery was dissected free of its connective tissue, and smooth muscle cells were freshly isolated under the following conditions. […] Cells stored in 0.05 mM Ca^2+ external solution containing 20 mM taurine and 0.5 mg/mL BSA at 4 °C under normal air were used for experiments within two days after isolation.
An Axopatch 200B patch-clamp amplifier (Molecular Devices Corporation, Sunnyvale, CA, USA) was used to generate and apply voltage pulses to the clamped cells and record the corresponding membrane currents. Recording electrodes were pulled from borosilicate glass capillaries (WPI, Berlin, Germany) and fire-polished to obtain a pipette resistance of 2–4 MΩ, when filled with an internal solution. At the beginning of each experiment, the junction potential between the pipette and bath solution was electronically adjusted to zero. […] Electrophysiological responses were tested at room temperature (20–22 °C).
The conventional whole-cell patch-clamp method was employed to voltage-clamp smooth muscle cells. The internal solution consisted of (in mM) 100 CsCl, 10 HEPES, 11 EGTA, 2 MgCl2, 1 CaCl2 (pCa 8.4), 5 Na pyruvate, 5 succinic acid, 5 oxaloacetic acid, 3 Na2ATP, and 5 phosphocreatine; pH was adjusted to 7.4 with CsOH. IBa1.2 was recorded in an external solution containing 30 mM TEA and 5 mM Ba^2+. […] Data were collected once the current amplitude had been stabilized (usually 7–10 min after the whole-cell configuration had been obtained).

rat aorta rings [3] = assay: Phenylephrine-induced contraction of rat aorta rings (pharmaco-mechanical coupling); conditions: for Emax: Rattus norvegicus; for Emax / IC50: 0.3 µM phenylephrine
Protocol: as §1, §2

CaV1.2 channel [4] = target: T1, CaV1.2 channel; assay: Voltage dependence of CaV1.2 channel steady-state activation and inactivation in rat tail artery myocytes; format: cell-based; conditions: for Slope inact (slope factor of inactivation) / V50 inact (50% inactivation potential): Vh −80 mV
Text: An Axopatch 200B patch-clamp amplifier (Molecular Devices Corporation, Sunnyvale, CA, USA) was used to generate and apply voltage pulses to the clamped cells and record the corresponding membrane currents. Recording electrodes were pulled from borosilicate glass capillaries (WPI, Berlin, Germany) and fire-polished to obtain a pipette resistance of 2–4 MΩ, when filled with an internal solution. At the beginning of each experiment, the junction potential between the pipette and bath solution was electronically adjusted to zero. After compensation for whole-cell capacitance and series resistance (between 70% and 75%), current signals were low-pass filtered at 1 kHz and digitized at 3 kHz, before being stored on a computer hard disk. Electrophysiological responses were tested at room temperature (20–22 °C).
Cells were continuously superfused with an external solution containing 0.1 mM Ca^2+ and 30 mM TEA using a peristaltic pump (LKB 2132, Bromma, Sweden) at a flow rate of 400 µL/min. The conventional whole-cell patch-clamp method was employed to voltage-clamp smooth muscle cells. The internal solution consisted of (in mM) 100 CsCl, 10 HEPES, 11 EGTA, 2 MgCl2, 1 CaCl2 (pCa 8.4), 5 Na pyruvate, 5 succinic acid, 5 oxaloacetic acid, 3 Na2ATP, and 5 phosphocreatine; pH was adjusted to 7.4 with CsOH. IBa1.2 was recorded in an external solution containing 30 mM TEA and 5 mM Ba^2+. The current was elicited with 250-ms clamp pulses (0.067 Hz) to 10 mV, from a Vh of −50 mV. Data were collected once the current amplitude had been stabilized (usually 7–10 min after the whole-cell configuration had been obtained).
Steady-state activation curves were derived from the current–voltage relationships. Conductance (G) was calculated from the equation G = IBa1.2/(Em − Erev), where: IBa1.2 is the peak current elicited by depolarizing test pulses between −50 mV and 40 mV from a Vh of −50 mV; Em is the membrane potential; and Erev is the reversal potential (estimated from the extrapolated current-voltage curves in Figure 2). Gmax is the maximal Ba^2+ conductance (calculated at potentials ≤40 mV). The G/Gmax ratio was plotted against the membrane potential and fitted to the Boltzmann equation [40]. Steady-state inactivation curves were obtained using a double-pulse protocol. Once various levels of the conditioning potential had been applied for 5 s, followed by a short (5-ms) return to the Vh of −80 mV, a test pulse (250 ms) to 10 mV was delivered to evoke the current. The delay between the conditioning potential and the test pulse allowed the full or near-complete deactivation of the channels, simultaneously avoiding partial recovery from inactivation. K^+ currents were blocked with 30 mM TEA in the external solution and Cs^+ in the internal solution. […] The osmolarity of the 30 mM TEA- and 5 mM Ba^2+-containing external solution (320 mosmol, adjusted with NaCl if required) and that of the internal solution (290 mosmol) were measured with an osmometer (Osmostat OM 6020, Menarini Diagnostics, Florence, Italy).

[5] = endothelium-denuded rat aorta rings pre-contracted by 25 mM KCl, read-out: Emax (percent maximal inhibition), KCl 25 mM-induced contraction
[6] = endothelium-denuded rat aorta rings pre-contracted by 60 mM KCl, read-out: Emax (percent maximal inhibition), KCl 60 mM-induced contraction
[7] = endothelium-denuded rat aorta rings pre-contracted by 60 mM KCl, read-out: IC50, KCl 60 mM-induced contraction
[8] = endothelium-denuded rat aorta rings pre-contracted by 25 mM KCl, read-out: IC50, KCl 25 mM-induced contraction
[9] = endothelium-denuded rat aorta rings, read-out: Emax (percent maximal inhibition), phenylephrine-induced contraction, −Endothelium
[10] = endothelium-intact rat aorta rings, read-out: Emax (percent maximal inhibition), phenylephrine-induced contraction, +Endothelium
[11] = endothelium-denuded rat aorta rings

T1 sequence (P22002 whole entry): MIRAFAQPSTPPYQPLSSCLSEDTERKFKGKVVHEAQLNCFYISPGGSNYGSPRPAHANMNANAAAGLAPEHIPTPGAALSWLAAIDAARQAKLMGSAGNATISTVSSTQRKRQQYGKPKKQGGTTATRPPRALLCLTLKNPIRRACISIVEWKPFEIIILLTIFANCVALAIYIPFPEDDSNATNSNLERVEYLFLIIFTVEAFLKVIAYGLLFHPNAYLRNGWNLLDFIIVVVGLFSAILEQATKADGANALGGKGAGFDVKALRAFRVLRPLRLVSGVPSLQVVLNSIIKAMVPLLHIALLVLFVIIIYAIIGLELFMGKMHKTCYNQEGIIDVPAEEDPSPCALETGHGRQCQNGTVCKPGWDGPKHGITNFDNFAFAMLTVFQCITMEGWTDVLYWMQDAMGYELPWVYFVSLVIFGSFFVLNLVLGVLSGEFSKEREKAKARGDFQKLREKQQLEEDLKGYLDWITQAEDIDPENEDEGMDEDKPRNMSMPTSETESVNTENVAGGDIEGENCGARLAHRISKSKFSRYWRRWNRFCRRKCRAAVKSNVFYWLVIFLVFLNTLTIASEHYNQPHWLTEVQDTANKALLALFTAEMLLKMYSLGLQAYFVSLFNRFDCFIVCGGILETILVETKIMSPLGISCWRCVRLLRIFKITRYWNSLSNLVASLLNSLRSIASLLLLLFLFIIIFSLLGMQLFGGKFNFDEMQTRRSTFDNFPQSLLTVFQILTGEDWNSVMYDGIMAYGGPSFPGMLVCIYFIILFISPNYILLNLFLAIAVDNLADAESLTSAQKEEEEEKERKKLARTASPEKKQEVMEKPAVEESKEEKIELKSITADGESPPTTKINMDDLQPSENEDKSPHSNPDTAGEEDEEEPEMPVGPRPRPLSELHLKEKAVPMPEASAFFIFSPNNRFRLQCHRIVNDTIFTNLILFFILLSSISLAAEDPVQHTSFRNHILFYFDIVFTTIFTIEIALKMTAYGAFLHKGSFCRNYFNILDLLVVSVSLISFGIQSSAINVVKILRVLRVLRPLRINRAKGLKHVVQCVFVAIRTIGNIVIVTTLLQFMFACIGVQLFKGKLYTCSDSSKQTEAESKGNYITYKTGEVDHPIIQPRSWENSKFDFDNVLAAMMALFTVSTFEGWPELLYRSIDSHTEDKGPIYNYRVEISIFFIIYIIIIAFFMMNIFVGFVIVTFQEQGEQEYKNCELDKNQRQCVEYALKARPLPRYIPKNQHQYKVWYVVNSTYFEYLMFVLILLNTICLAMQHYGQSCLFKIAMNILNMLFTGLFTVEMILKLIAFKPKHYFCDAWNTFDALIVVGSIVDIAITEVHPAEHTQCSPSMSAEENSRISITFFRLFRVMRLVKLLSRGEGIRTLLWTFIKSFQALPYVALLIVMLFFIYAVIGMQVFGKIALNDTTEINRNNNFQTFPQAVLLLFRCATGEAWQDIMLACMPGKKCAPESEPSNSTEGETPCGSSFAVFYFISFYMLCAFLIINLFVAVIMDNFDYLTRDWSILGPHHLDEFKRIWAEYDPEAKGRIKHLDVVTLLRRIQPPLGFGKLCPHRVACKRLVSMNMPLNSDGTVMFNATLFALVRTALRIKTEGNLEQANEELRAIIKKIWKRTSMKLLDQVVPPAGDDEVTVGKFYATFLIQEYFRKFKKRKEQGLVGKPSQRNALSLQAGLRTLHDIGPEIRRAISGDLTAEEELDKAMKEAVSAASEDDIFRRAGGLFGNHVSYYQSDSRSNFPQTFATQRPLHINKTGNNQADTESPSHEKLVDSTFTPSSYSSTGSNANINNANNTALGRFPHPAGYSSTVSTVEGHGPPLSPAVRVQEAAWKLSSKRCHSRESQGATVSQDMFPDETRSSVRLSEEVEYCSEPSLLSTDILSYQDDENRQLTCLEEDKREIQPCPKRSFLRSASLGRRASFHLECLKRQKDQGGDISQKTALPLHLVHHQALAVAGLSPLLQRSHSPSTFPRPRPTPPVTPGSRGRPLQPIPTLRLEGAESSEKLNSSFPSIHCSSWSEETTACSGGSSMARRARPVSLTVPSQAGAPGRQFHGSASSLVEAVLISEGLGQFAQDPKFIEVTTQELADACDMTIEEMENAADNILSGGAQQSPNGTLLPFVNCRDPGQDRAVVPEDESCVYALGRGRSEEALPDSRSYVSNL
T1 sequence (P54290 25-944 partner limits assumed): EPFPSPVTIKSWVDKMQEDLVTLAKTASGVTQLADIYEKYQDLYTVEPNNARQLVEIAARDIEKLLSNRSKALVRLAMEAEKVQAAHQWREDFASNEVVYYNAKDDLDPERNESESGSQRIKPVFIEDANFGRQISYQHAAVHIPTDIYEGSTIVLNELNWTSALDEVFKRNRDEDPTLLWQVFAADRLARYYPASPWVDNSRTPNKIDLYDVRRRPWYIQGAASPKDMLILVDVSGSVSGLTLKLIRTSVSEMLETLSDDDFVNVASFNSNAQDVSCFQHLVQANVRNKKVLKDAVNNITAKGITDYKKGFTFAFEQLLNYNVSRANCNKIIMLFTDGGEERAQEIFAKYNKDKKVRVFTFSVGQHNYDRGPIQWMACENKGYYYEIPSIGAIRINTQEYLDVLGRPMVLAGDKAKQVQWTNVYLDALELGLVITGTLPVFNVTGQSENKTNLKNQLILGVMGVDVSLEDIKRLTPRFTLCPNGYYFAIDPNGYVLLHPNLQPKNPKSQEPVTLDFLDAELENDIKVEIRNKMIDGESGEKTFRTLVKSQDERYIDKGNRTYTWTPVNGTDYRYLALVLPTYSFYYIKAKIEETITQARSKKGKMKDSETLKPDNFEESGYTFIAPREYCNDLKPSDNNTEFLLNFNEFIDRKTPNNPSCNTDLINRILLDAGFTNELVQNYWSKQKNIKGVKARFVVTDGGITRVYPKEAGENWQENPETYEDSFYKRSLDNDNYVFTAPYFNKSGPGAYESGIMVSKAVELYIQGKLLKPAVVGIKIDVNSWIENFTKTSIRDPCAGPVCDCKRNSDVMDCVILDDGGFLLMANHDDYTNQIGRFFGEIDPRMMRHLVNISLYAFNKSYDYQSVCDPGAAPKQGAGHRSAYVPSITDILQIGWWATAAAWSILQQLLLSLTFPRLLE
T1 sequence (P54290 945-1091 partner limits assumed): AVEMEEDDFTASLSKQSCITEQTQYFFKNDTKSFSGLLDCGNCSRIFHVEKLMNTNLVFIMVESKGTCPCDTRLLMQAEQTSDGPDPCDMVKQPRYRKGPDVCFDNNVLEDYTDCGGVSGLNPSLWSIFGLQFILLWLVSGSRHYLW
T1 sequence (P54287 whole entry partner): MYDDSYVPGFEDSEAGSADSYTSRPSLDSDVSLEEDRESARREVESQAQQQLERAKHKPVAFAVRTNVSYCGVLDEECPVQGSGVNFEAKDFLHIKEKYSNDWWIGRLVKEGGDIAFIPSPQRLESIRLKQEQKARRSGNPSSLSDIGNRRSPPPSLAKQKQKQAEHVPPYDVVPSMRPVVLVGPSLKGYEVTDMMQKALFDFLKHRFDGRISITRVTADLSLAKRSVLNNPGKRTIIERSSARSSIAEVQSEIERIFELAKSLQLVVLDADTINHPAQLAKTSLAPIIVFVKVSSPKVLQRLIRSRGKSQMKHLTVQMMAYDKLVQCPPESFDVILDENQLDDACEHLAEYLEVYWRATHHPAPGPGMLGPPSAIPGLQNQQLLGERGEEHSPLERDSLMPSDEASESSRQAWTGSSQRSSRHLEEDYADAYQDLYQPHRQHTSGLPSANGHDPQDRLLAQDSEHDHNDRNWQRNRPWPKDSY

Row | Molecule | IC50 (rat aorta rings [1]; [7]) | IC50 (rat aorta rings [1]; [8]) | IC50 (rat aorta rings [3]; [11]) | Emax (rat aorta rings [1]; [5]) | Emax (rat aorta rings [1]; [6]) | Emax (CaV1.2 channel [2]; pulses to 10 mV from Vh −50 mV) | IC50 (CaV1.2 channel [2]; pulses to 10 mV from Vh −50 mV) | Effect on phenylephrine-induced tone in words (rat aorta rings [3]; endothelium-intact rat aorta rings) | IBa1.2, % of the control (CaV1.2 channel [2]; 100 nM, n = 5) | Slope inact (slope factor of inactivation) (CaV1.2 channel [4]; 10 µM compound) | V50 inact (50% inactivation potential) (CaV1.2 channel [4]; 10 µM compound) | Slope act (slope factor of activation) (CaV1.2 channel [4]; 30 µM compound) | V50 act (50% activation potential) (CaV1.2 channel [4]; 30 µM compound) | Emax (rat aorta rings [3]; [9]) | Emax (rat aorta rings [3]; [10]) | Slope act (slope factor of activation) (CaV1.2 channel [4]; 10 µM compound) | V50 act (50% activation potential) (CaV1.2 channel [4]; 10 µM compound) | Emax (percent maximal inhibition), KCl 60 mM-induced contraction (rat aorta rings [1]; endothelium-denuded rat aorta rings pre-contracted by 60 mM KCl) | Emax (percent maximal inhibition), IBa1.2 (CaV1.2 channel [2]; pulses to 10 mV from Vh −50 mV)
1 | CC1(C)CCCC2(C)C1CCC1(C)OC(=O)CC12 (single isomer, unassigned; (+)) [Compound 5, (+)-sclareolide, reference compound] | 29.2 ± 6.1 µM | – | – | 45.9 ± 8.5% | 73.5 ± 6.8% | 64.8 ± 6.1% | ~69 µM | dramatic concentration-dependent increase of phenylephrine-induced tone | – | – | – | – | – | – | – | – | – | – | –
2 | COC(=O)C1=C(C)NC(C)=C([N+](=O)[O-])[C@H]1c1ccccc1C(F)(F)F [Bay K 8644, (S)-(-)-Bay K 8644, reference compound] | – | – | – | – | – | – | – | – | 447 ± 28% | – | – | – | – | – | – | – | – | – | –
3 | CC1(C)CCC[C@]2(C)[C@@H](CCOCc3cccc(Cl)c3)[C@](C)(O)CC[C@@H]12 [Compound 10] | ~69.2 µM | – | – | – | 53.1 ± 13.4% | 86.4 ± 4.9% | 20.8 ± 6.1 µM | – | – | – | – | – | – | – | – | – | – | – | –
4 | sclareol [Compound 6] | 11.9 ± 1.3 µM | – | – | – | – | – | 33.2 ± 6.8 µM | – | – | – | – | – | – | – | – | – | – | 98.8 ± 1.3 (5) % | 88.7 ± 4.0 (5) %

Continued, in another order:

Row | IC50 (rat aorta rings [1]; [7]) | IC50 (rat aorta rings [1]; [8]) | IC50 (rat aorta rings [3]; [11]) | Molecule | Emax (rat aorta rings [1]; [5]) | Emax (rat aorta rings [1]; [6]) | Emax (CaV1.2 channel [2]; pulses to 10 mV from Vh −50 mV) | IC50 (CaV1.2 channel [2]; pulses to 10 mV from Vh −50 mV) | Effect on phenylephrine-induced tone in words (rat aorta rings [3]; endothelium-intact rat aorta rings) | IBa1.2, % of the control (CaV1.2 channel [2]; 100 nM, n = 5) | Slope inact (slope factor of inactivation) (CaV1.2 channel [4]; 10 µM compound) | V50 inact (50% inactivation potential) (CaV1.2 channel [4]; 10 µM compound) | Slope act (slope factor of activation) (CaV1.2 channel [4]; 30 µM compound) | V50 act (50% activation potential) (CaV1.2 channel [4]; 30 µM compound) | Emax (rat aorta rings [3]; [9]) | Emax (rat aorta rings [3]; [10]) | Slope act (slope factor of activation) (CaV1.2 channel [4]; 10 µM compound) | V50 act (50% activation potential) (CaV1.2 channel [4]; 10 µM compound) | Emax (percent maximal inhibition), KCl 60 mM-induced contraction (rat aorta rings [1]; endothelium-denuded rat aorta rings pre-contracted by 60 mM KCl) | Emax (percent maximal inhibition), IBa1.2 (CaV1.2 channel [2]; pulses to 10 mV from Vh −50 mV)
5 | 6.1 ± 1.6 µM | 2.1 ± 0.9 µM | ~44.7 µM | CC1(C)CCC[C@]2(C)[C@@H](CC(=O)NCc3ccco3)[C@](C)(O)CC[C@@H]12 [Compound 8] | 85.8 ± 4.8% | 87.3 ± 4.9% | 92.4 ± 2.2% | 16.7 ± 3 µM | – | – | −11.51 ± 1.90 | −30.97 ± 3.49 mV | 7.61 ± 0.66 | 0.03 ± 1.35 mV | ≤ 60% | 15.2 ± 7.9% | – | – | – | –
6 | 4.5 ± 0.5 µM | 0.9 ± 0.2 µM | ~55 µM | CC1(C)CCC[C@]2(C)[C@@H](CC(=O)NCCc3cccc(F)c3)[C@](C)(O)CC[C@@H]12 [Compound 9] | 92.3 ± 0.6% | 92.4 ± 1.3% | 97.8 ± 0.8% | 15.3 ± 5.3 µM | – | – | −10.25 ± 1.33 | −36.46 ± 2.73 mV | – | – | ≤ 60% | 19.4 ± 23.2% | 6.79 ± 0.35 | −2.37 ± 0.95 mV | – | –
